Results: the kinase profiling compilation of Christmann-Franck et al. (2016)

What was measured:
Test in all cases: KINOMEscan competition binding
Conditions in all cases: compound 10.0 µM
AURKA (human) = AURKA (human) (UniProt O14965)
BLK (human) = BLK (human) (UniProt P51451)
BRSK1 (human) = BRSK1 (human) (UniProt Q8TDC3)
CDK14 (human) = CDK14 (human) (UniProt O94921)
CDK19 (human) = CDK19 (human) (UniProt Q9BWU1)
CDK3 (human) = CDK3 (human) (UniProt Q00526)
CSF1R (human) = CSF1R (human) (UniProt P07333)
CSNK1E (human) = CSNK1E (human) (UniProt P49674)
EPHA7 (human) = EPHA7 (human) (UniProt Q15375)
FGFR4 (human) = FGFR4 (human) (UniProt P22455)
GSK3B (human) = GSK3B (human) (UniProt P49841)
HIPK1 (human) = HIPK1 (human) (UniProt Q86Z02)
[1] = biological target: JAK1 JH2 pseudokinase (human) (UniProt P23458)
LATS1 (human) = LATS1 (human) (UniProt O95835)
MAP3K12 (human) = MAP3K12 (human) (UniProt Q12852)
MAPK7 (human) = MAPK7 (human) (UniProt Q13164)
MARK1 (human) = MARK1 (human) (UniProt Q9P0L2)
MARK4 (human) = MARK4 (human) (UniProt Q96L34)
MYLK4 (human) = MYLK4 (human) (UniProt Q86YV6)
PIK3CB (human) = PIK3CB (human) (UniProt P42338)
PIM3 (human) = PIM3 (human) (UniProt Q86V86)
PKN1 (human) = PKN1 (human) (UniProt Q16512)
PKN2 (human) = PKN2 (human) (UniProt Q16513)
PLK3 (human) = PLK3 (human) (UniProt Q9H4B4)
PTK2 (human) = PTK2 (human) (UniProt Q05397)
PTK2B (human) = PTK2B (human) (UniProt Q14289)
RET (human) = RET (human) (UniProt P07949)
RIOK1 (human) = RIOK1 (human) (UniProt Q9BRS2)
RIPK1 (human) = RIPK1 (human) (UniProt Q13546)
RIPK4 (human) = RIPK4 (human) (UniProt P57078)
RPS6KA2 KD1 (human) = RPS6KA2 KD1 (human) (UniProt Q15349)
RPS6KA2 KD2 (human) = RPS6KA2 KD2 (human) (UniProt Q15349)
SRC (human) = SRC (human) (UniProt P12931)
STK16 (human) = STK16 (human) (UniProt O75716)
STK24 (human) = STK24 (human) (UniProt Q9Y6E0)
STK25 (human) = STK25 (human) (UniProt O00506)
STK36 (human) = STK36 (human) (UniProt Q9NRP7)
SYK (human) = SYK (human) (UniProt P43405)
TAOK1 (human) = TAOK1 (human) (UniProt Q7L7X3)
TXK (human) = TXK (human) (UniProt P42681)

Chain of TAOK1 (human) (Q7L7X3 whole entry, looked up): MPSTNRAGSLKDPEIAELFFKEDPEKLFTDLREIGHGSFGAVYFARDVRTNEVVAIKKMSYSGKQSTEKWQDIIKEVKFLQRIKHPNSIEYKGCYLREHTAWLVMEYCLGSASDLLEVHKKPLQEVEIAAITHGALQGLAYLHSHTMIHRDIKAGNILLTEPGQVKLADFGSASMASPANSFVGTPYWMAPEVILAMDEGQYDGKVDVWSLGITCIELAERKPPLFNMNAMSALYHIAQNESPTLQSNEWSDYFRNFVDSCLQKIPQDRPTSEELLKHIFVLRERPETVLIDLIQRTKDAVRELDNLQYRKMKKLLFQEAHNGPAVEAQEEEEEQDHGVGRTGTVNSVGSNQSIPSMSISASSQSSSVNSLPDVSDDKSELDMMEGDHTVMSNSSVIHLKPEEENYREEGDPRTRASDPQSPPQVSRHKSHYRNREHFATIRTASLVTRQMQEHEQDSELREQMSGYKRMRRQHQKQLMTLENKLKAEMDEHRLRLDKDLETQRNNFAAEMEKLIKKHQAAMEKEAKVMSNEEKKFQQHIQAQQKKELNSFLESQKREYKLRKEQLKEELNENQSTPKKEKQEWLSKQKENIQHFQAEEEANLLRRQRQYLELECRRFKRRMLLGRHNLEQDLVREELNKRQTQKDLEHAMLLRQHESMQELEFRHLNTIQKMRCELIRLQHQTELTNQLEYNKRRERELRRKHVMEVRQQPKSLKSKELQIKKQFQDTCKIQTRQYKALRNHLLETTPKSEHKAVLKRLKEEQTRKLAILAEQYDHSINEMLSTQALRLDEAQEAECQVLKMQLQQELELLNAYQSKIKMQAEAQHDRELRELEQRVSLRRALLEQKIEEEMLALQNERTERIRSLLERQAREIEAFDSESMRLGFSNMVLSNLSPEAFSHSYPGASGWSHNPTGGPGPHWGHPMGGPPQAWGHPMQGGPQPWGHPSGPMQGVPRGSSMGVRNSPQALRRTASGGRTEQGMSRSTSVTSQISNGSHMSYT
Chain of CSF1R (human) (P07333 whole entry, looked up): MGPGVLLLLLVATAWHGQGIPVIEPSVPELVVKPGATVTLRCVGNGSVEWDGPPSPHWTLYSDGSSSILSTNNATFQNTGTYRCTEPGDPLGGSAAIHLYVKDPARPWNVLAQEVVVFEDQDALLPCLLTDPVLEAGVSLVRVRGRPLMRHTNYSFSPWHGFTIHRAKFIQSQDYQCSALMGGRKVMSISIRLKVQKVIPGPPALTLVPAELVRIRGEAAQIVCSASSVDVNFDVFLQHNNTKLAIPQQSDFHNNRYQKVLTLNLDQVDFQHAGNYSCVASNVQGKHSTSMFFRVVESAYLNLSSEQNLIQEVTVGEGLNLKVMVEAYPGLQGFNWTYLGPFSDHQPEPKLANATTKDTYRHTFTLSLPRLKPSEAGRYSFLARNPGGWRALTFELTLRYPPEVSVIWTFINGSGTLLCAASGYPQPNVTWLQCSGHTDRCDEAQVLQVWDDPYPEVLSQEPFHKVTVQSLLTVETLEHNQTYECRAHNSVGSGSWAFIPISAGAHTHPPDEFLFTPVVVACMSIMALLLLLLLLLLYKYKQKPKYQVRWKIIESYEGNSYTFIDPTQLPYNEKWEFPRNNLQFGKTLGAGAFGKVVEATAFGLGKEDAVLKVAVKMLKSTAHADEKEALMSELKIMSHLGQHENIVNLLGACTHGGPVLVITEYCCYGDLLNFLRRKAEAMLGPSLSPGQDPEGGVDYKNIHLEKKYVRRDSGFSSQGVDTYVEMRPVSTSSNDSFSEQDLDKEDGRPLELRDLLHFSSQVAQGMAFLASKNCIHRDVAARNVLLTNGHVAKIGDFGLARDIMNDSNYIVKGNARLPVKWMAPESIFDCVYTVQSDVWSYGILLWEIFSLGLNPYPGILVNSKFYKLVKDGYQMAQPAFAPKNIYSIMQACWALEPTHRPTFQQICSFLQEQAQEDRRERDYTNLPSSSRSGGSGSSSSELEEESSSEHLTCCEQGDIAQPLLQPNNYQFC
Chain of MARK1 (human) (Q9P0L2 whole entry, looked up): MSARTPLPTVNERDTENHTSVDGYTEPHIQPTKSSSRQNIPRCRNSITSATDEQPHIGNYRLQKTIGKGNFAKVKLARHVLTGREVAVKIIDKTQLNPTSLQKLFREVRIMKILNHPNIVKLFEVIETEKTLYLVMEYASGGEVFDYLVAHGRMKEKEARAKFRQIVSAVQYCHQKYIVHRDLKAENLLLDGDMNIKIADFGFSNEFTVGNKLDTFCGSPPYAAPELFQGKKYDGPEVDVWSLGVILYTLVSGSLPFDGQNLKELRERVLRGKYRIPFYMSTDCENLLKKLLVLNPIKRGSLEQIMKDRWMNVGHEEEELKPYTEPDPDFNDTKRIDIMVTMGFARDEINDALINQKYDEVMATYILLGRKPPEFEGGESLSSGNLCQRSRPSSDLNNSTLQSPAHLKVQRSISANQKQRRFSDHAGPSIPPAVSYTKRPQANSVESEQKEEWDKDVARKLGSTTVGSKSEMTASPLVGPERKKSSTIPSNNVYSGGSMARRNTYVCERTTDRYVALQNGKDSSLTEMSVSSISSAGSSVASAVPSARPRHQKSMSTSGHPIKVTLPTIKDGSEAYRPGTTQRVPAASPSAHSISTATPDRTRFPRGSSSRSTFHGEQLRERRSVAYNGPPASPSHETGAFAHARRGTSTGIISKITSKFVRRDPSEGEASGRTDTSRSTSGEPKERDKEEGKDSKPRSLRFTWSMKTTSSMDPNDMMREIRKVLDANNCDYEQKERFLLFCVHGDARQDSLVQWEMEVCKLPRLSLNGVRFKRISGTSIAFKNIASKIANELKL
Chain of PTK2B (human) (Q14289 whole entry, looked up): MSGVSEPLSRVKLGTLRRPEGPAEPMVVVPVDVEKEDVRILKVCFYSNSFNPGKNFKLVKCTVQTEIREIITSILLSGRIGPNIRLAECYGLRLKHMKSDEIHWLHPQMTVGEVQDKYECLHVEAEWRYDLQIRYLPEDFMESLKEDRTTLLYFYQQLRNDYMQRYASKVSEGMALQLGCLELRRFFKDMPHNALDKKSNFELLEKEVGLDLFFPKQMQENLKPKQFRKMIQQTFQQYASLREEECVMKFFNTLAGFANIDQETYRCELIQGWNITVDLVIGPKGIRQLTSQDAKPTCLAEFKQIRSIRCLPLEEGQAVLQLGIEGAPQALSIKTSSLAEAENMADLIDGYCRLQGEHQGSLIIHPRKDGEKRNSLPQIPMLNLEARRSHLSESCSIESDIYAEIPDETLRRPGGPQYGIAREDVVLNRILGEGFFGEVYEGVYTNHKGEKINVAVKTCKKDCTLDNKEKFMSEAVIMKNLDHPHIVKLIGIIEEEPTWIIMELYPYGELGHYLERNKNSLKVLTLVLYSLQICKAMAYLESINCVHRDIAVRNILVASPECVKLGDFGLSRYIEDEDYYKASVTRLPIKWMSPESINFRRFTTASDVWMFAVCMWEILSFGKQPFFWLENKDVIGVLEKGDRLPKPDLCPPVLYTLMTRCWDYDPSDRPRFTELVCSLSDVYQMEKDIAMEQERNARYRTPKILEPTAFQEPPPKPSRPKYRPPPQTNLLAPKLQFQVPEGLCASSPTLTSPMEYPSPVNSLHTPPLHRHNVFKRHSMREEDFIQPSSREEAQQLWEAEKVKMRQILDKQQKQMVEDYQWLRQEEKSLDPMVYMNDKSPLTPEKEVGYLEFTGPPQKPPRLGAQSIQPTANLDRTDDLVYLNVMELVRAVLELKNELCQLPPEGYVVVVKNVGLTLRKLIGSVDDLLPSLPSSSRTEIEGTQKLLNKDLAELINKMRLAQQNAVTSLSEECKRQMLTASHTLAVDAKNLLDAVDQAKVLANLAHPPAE
Chain of STK16 (human) (O75716 whole entry, looked up): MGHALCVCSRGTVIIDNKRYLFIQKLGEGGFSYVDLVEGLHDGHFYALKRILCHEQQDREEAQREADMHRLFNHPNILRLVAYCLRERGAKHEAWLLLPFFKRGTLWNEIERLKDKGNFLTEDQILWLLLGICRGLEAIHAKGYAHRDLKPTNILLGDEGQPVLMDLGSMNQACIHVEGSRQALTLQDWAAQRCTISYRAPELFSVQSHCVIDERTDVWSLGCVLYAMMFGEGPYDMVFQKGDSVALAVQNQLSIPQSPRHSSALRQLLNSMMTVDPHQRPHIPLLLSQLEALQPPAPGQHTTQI
Chain of CDK3 (human) (Q00526 whole entry, looked up): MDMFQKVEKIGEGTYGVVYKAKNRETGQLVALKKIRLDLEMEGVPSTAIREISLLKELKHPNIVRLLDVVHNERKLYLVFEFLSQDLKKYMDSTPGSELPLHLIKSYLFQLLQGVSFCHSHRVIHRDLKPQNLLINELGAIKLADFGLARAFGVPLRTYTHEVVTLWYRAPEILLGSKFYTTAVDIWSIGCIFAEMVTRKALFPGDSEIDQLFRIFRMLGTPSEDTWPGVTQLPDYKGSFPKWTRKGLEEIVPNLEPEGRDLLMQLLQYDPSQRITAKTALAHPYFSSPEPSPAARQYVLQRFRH
Chain of PLK3 (human) (Q9H4B4 whole entry, looked up): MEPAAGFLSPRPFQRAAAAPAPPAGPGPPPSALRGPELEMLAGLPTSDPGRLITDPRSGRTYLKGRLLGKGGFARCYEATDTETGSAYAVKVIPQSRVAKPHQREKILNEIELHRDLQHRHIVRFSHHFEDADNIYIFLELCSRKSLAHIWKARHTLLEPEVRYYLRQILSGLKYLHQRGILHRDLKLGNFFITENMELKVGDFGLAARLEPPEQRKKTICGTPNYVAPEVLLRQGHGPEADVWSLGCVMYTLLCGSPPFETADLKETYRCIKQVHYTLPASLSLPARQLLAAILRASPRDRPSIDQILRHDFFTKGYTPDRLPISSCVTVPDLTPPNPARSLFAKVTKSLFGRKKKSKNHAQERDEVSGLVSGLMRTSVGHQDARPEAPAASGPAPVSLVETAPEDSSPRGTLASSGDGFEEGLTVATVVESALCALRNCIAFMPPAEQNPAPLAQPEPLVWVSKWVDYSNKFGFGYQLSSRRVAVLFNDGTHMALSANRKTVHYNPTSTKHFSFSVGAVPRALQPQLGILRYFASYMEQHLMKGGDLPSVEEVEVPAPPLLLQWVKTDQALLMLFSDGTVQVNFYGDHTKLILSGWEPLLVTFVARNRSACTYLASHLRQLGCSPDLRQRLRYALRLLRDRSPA

Structure (SMILES)	kinase still bound, per cent of control (AURKA (human))	kinase still bound, per cent of control (BLK (human))	kinase still bound, per cent of control (BRSK1 (human))	kinase still bound, per cent of control (CDK14 (human))	kinase still bound, per cent of control (CDK19 (human))	kinase still bound, per cent of control (CDK3 (human))	kinase still bound, per cent of control (CSF1R (human))	kinase still bound, per cent of control (CSNK1E (human))	kinase still bound, per cent of control (EPHA7 (human))	kinase still bound, per cent of control (FGFR4 (human))	kinase still bound, per cent of control (GSK3B (human))	kinase still bound, per cent of control (HIPK1 (human))	kinase still bound, per cent of control [1]	kinase still bound, per cent of control (LATS1 (human))	kinase still bound, per cent of control (MAP3K12 (human))	kinase still bound, per cent of control (MAPK7 (human))	kinase still bound, per cent of control (MARK1 (human))	kinase still bound, per cent of control (MARK4 (human))	kinase still bound, per cent of control (MYLK4 (human))	kinase still bound, per cent of control (PIK3CB (human))	further results
Cc1ccc(NC(=O)c2cccc(C(C)(C)C#N)c2)cc1Nc1ccc2ncn(C)c(=O)c2c1	100%	1%	91%	100%	35%	100%	0.1%	100%	84%	100%	95%	100%	82%	100%	74%	100%	100%	100%	100%	100%	kinase still bound, per cent of control (PIM3 (human)): 98%; kinase still bound, per cent of control (PKN1 (human)): 100%; kinase still bound, per cent of control (PKN2 (human)): 100%; kinase still bound, per cent of control (PLK3 (human)): 100%; kinase still bound, per cent of control (PTK2 (human)): 100%; kinase still bound, per cent of control (PTK2B (human)): 100%; kinase still bound, per cent of control (RET (human)): 0.15%; kinase still bound, per cent of control (RIOK1 (human)): 100%; kinase still bound, per cent of control (RIPK1 (human)): 83%; kinase still bound, per cent of control (RIPK4 (human)): 98%; kinase still bound, per cent of control (RPS6KA2 KD1 (human)): 89%; kinase still bound, per cent of control (RPS6KA2 KD2 (human)): 84%; kinase still bound, per cent of control (SRC (human)): 0.55%; kinase still bound, per cent of control (STK16 (human)): 83%; kinase still bound, per cent of control (STK24 (human)): 79%; kinase still bound, per cent of control (STK25 (human)): 100%; kinase still bound, per cent of control (STK36 (human)): 88%; kinase still bound, per cent of control (SYK (human)): 100%; kinase still bound, per cent of control (TAOK1 (human)): 91%; kinase still bound, per cent of control (TXK (human)): 5.6%
COc1cc(C(=O)NC2CCN(C)CC2)ccc1Nc1ncc2c(n1)N(C1CCCC1)C(C)CC(=O)N2C (stereo not given)	100%	100%	100%	100%	100%	100%	100%	100%	100%	100%	100%	100%	22%	100%	100%	100%	100%	100%	100%	100%	kinase still bound, per cent of control (PIM3 (human)): 100%; kinase still bound, per cent of control (PKN1 (human)): 100%; kinase still bound, per cent of control (PKN2 (human)): 100%; kinase still bound, per cent of control (PLK3 (human)): 0%; kinase still bound, per cent of control (PTK2 (human)): 0.4%; kinase still bound, per cent of control (PTK2B (human)): 13%; kinase still bound, per cent of control (RET (human)): 100%; kinase still bound, per cent of control (RIOK1 (human)): 100%; kinase still bound, per cent of control (RIPK1 (human)): 100%; kinase still bound, per cent of control (RIPK4 (human)): 100%; kinase still bound, per cent of control (RPS6KA2 KD1 (human)): 100%; kinase still bound, per cent of control (RPS6KA2 KD2 (human)): 5.8%; kinase still bound, per cent of control (SRC (human)): 100%; kinase still bound, per cent of control (STK16 (human)): 100%; kinase still bound, per cent of control (STK24 (human)): 100%; kinase still bound, per cent of control (STK25 (human)): 100%; kinase still bound, per cent of control (STK36 (human)): 100%; kinase still bound, per cent of control (SYK (human)): 100%; kinase still bound, per cent of control (TAOK1 (human)): 100%; kinase still bound, per cent of control (TXK (human)): 100%
C=CC(=O)Nc1cc(NC(=O)c2ccc(C)c(NC(=O)c3ccno3)c2)cc(C(F)(F)F)c1	95%	97%	100%	93%	96%	97%	38%	100%	77%	100%	100%	97%	92%	100%	100%	92%	100%	100%	97%	100%	kinase still bound, per cent of control (PIM3 (human)): 100%; kinase still bound, per cent of control (PKN1 (human)): 96%; kinase still bound, per cent of control (PKN2 (human)): 100%; kinase still bound, per cent of control (PLK3 (human)): 100%; kinase still bound, per cent of control (PTK2 (human)): 91%; kinase still bound, per cent of control (PTK2B (human)): 91%; kinase still bound, per cent of control (RET (human)): 96%; kinase still bound, per cent of control (RIOK1 (human)): 100%; kinase still bound, per cent of control (RIPK1 (human)): 100%; kinase still bound, per cent of control (RIPK4 (human)): 86%; kinase still bound, per cent of control (RPS6KA2 KD1 (human)): 100%; kinase still bound, per cent of control (RPS6KA2 KD2 (human)): 100%; kinase still bound, per cent of control (SRC (human)): 49%; kinase still bound, per cent of control (STK16 (human)): 100%; kinase still bound, per cent of control (STK24 (human)): 100%; kinase still bound, per cent of control (STK25 (human)): 100%; kinase still bound, per cent of control (STK36 (human)): 100%; kinase still bound, per cent of control (SYK (human)): 100%; kinase still bound, per cent of control (TAOK1 (human)): 76%; kinase still bound, per cent of control (TXK (human)): 93%
